Source: patent publication US8980848B2, “Flavonoid dimers and their use” (The Hong Kong Polytechnic University, priority 2010, dated 2015)
Read-outs that look alike come from different tables or passages of the source.

Assays:
[1] = test system: LCC6MDR cells; assay: Tumor cell line cytotoxicity of flavonoid dimers, LCC6MDR; format: cell-based, human; conditions: IC50 of compound alone, 72 hrs
Procedure, shortened: (§1)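 LCC6, LCC6MDR and L929 cells seeded at 1×10^4 cells/well and exposed to graded doses of flavonoid dimers. Incubation 72 hrs at 37° C., 5% CO2. Read-out: % survivors.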

[2] = biological target: T1, Pgp (LCC6MDR cells) (Homo sapiens, UniProt P08183)
Procedure: (§3) Cell Proliferation Assay. 6,000 cells of LCC6 or LCC6MDR and anticancer drugs (paclitaxel, vinblastine, vincristine, doxorubicin and mitoxantrone) were mixed with or without modulators to a final volume of 200 μL in each well of 96-well plates. […] The plates were then incubated for 5 days at 37° C. […] IC50 values were calculated from the dose-response curves of MTS assays (Prism 4.0).

[3] = test system: L929 cells; assay: Cytotoxicity of flavonoid dimers, L929 mouse fibroblast; format: cell-based
Procedure, shortened: as §1

[4] = test system: LCC6 cells; assay: Tumor cell line cytotoxicity of flavonoid dimers, LCC6; format: cell-based, human; conditions: IC50 of compound alone, 72 hrs
Procedure, shortened: as §1

[5] = biological target: T1, Pgp (LCC6MDR cells); assay: Cell proliferation assay: Pgp-modulating activity, reversal of anticancer drug resistance in LCC6MDR cells; conditions: for RF (Relative Fold), cpd at 0.5 μM: RF = (IC50 without modulator)/(IC50 with 0.5 μM modulator); for RF (Relative Fold), cpd at 0.5 μM / RF (Relative Fold), cpd at 1 μM: paclitaxel, LCC6MDR; for RF (Relative Fold), cpd at 1 μM: RF = (IC50 without modulator)/(IC50 with 1.0 μM modulator)
Procedure: as §3

[6] = test system: Raw264.7 cells; assay: Cytotoxicity, mouse macrophage Raw264.7; format: cell-based; conditions: 72 hrs
Procedure, shortened: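 Raw264.7 (1×10^4 cells/well) and primary PEM cells (2×10^4 cells/well) in supplemented DMEM received graded compound doses and were incubated 72 h at 37 °C, 5% CO2. Percent survivors determined; cytotoxicity IC50 used for therapeutic index against antileishmanial IC50.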

[7] = test system: Ld39 promastigotes (SSG-resistant); assay: In vitro anti-promastigote activity, Ld39; format: cell-based, Leishmania donovani; conditions: 3 days at 27° C., MTS; read-out: Anti-promastigotes activity (IC50, μM) Ld39
Procedure, shortened: (§2)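 L. donovani (LdAG83 wild type, SSG-resistant Ld39) and L. major Lm50122 promastigotes were seeded at 1×10^5 per well with a concentration series of compound.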

[8] = test system: LdAG83 promastigotes (wild type); assay: In vitro anti-promastigote activity, LdAG83; format: cell-based, Leishmania donovani; conditions: 3 days at 27° C., MTS; read-out: Anti-promastigotes activity (IC50, μM) LdAG83
Procedure, shortened: as §2

[9] = test system: LCC6, LCC6MDR and L929 cell lines; assay: Cytotoxicity over LCC6, LCC6MDR and L929 cell lines; format: cell-based, human, mouse
Procedure: (b) Tumor Cell Line Cytotoxicity. The tumor cytotoxicity assays of flavonoid dimers were performed against LCC6, LCC6MDR and L929 cell lines. The cells were grown in supplemented DMEM media in an atmosphere of 95% air and 5% CO2 at 37° C. In brief, LCC6, LCC6MDR and L929 cells were seeded into 96-well flat bottom microtiter plate at 1×10^4 cells per well in a final volume of 100 μL media, respectively. A graded dose of flavonoid dimers was added into wells. The plate was incubated at 37° C. for 72 hrs at the atmosphere 5% CO2 in the air. The % of survivors was determined.

[10] = test system: LCC6 cells; assay: Doxorubicin accumulation in LCC6 cells; format: cell-based, human; conditions: 1 μM
From the text: Doxorubycin accumulation. […] […].

[11] = test system: Lm50122 promastigotes; assay: In vitro anti-promastigote activity, Lm50122; format: cell-based, Leishmania major; conditions: 3 days at 27° C., MTS; read-out: Anti-promastigotes activity (IC50, μM) Lm50122
Procedure: Cell Lines and Cell Culture. Promastigotes of Leishmania donovani (wild type LdAG83, pentamidine-resistant LdAG83-PentR50, and SSG-resistant Ld39) and Leishmania major [MHOM/IL/67/JERICHO II (Lm50122), from ATCC] were used in this study.
In Vitro Anti-Promastigote Activity. The viability of promastigotes was determined by the Cell Titer 96° Aqueous Assay (Promega) that employs a tetrazolium compound (MTS, 2-(4,5-Dimethylthiazol-2-yl-)-5-[3-(carboxymethoxy)phenyl]-2-(4-sulfophenyl)-2H-tetrazolium) and electron coupling reagent, phenazine methosulfate (PMS).^7 Promastigotes were seeded into 96-well flat bottom microtiter plate at 1×10^5 cells per well in a final volume of 100 μL medium and incubated with a series concentration of synthetic flavonoid dimers or known antileishmanials. The parasites were incubated at 27° C. for 72 hrs. Fresh solution of 2 mg/mL MTS and 0.92 mg/mL PMS were prepared in a ratio of 20:1 (MTS:PMS). After 72 hrs incubation, 10 μL of MTS:PMS mixture was added into each well of microtiter plate. The plate was then incubated at 27° C. for 4 hrs for color development. After 4 hrs incubation, the OD values were determined at 490 nm using automatic microtiter plate reader (Bio-Rad).

T1 sequence (P08183 whole entry): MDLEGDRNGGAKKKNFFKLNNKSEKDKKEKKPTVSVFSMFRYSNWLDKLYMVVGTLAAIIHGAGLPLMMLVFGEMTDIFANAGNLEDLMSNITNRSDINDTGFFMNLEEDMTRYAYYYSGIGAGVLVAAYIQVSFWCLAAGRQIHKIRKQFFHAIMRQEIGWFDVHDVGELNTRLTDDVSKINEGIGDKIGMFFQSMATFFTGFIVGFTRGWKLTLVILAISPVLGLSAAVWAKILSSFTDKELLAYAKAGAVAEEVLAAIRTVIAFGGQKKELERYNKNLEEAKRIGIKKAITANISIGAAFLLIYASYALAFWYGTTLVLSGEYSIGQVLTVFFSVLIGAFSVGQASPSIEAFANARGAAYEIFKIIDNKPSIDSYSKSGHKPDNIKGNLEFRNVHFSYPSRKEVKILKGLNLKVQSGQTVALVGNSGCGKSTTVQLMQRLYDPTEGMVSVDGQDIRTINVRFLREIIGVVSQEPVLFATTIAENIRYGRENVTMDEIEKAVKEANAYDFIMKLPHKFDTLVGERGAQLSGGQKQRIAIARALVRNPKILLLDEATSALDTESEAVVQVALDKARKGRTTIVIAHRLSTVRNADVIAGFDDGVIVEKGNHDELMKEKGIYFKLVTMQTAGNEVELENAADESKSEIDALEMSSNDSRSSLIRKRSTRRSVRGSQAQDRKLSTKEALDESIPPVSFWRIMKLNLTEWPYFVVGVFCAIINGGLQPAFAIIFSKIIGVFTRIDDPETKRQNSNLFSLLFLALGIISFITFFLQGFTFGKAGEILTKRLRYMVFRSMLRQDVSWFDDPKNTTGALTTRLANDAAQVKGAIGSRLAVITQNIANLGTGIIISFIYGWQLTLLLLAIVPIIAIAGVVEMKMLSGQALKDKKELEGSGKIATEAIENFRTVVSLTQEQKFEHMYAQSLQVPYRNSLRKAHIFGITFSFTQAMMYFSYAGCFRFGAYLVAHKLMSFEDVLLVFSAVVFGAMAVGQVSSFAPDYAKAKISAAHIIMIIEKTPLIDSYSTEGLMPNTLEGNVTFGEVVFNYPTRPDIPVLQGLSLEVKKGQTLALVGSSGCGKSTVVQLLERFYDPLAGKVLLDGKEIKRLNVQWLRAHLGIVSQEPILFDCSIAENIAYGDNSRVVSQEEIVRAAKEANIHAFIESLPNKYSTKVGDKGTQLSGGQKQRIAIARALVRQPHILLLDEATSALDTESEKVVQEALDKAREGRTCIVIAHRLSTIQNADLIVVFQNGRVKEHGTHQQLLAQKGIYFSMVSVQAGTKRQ

For “1,13-Bis[4′-((5-hydroxy)-4H-chromen-4-on-2-yl)phenyl]-7-(tert-butyloxycarbonyl)-1,4,10,13-tetraoxa-7-azamidecane [Compound 16f]”, the IC50 [1] was greater than 100 µM, the “RF (Relative Fold), cpd at 0.5 μM” value [2] was “(11.3)” and the IC50 [3] was greater than 100 µM. It also gave an IC50 [4] greater than 100 µM.
With Cc1ccc(S(=O)(=O)N(CCOCCOc2ccc(-c3cc(=O)c4ccccc4o3)cc2)CCOCCOc2ccc(-c3cc(=O)c4ccccc4o3)cc2)cc1 [Compound 25a, 1,13-Bis[4′-(4H-chromen-4-on-2-yl)phenyl]-N-(4-methylbenzenesulfonyl)-1,4,10,13-tetraoxa-7-azamidecane] the IC50 [1] was greater than 100 µM, the “RF (Relative Fold), cpd at 0.5 μM” value [5] was “(5.8)” and the IC50 [6] was greater than 100 µM. For the same molecule, the IC50 [3] was greater than 100 µM, the IC50 [7] was greater than 100 µM and the IC50 [4] was greater than 100 µM. It also gave an IC50 [8] of 100 µM.
For CC(C)(C)OC(=O)N(CCOCCOc1ccc(-c2cc(=O)c3c(OCc4ccccc4)cccc3o2)cc1)CCOCCOc1ccc(-c2cc(=O)c3c(OCc4ccccc4)cccc3o2)cc1 [Compound 16e, 1,13-Bis[4′-((5-benzyloxy)-4H-chromen-4-on-2-yl)phenyl]-7-(tert-butyloxycarbonyl)-1,4,10,13-tetraoxa-7-azamidecane], the IC50 [1] was greater than 100 µM, the “RF (Relative Fold), cpd at 0.5 μM” value [2] was “(1.1)” and the IC50 [4] was greater than 100 µM.
CCOC(=O)CCN(CCOCCOc1ccc(-c2cc(=O)c3ccccc3o2)cc1)CCOCCOc1ccc(-c2cc(=O)c3ccccc3o2)cc1 [Compound 15, 1,13-Bis[4′-(4H-chromen-4-on-2-yl)phenyl]-N-(3-ethoxy-3-oxopropyl)-1,4,10,13-tetraoxa-7-azamidecane] was tested, and the IC50 [1] was 17.7 ± 3.7 µM, the “RF (Relative Fold), cpd at 0.5 μM” value [5] was “(5.3)” and the IC50 [9] was 13.5 to 17.7 µM. For the same molecule, the IC50 [3] was 18.1 ± 3.4 µM, the IC50 [7] was 6.6 ± 0.2 µM and the IC50 [4] was 13.5 ± 0.5 µM. It also gave an IC50 [8] of 3.8 ± 0.8 µM.
With COc1ccc(CCN(C)CCCC(C#N)(c2ccc(OC)c(OC)c2)C(C)C)cc1OC (stereo not shown) [Verapamil, verapamil, reference compound] the “Effect on intracellular doxorubicin accumulation in parental LCC6” value [10] was “does not increase”.
In the case of Cc1ccc2oc(-c3ccc(OCCOCCN(CCOCCOc4ccc(-c5cc(=O)c6cc(C)ccc6o5)cc4)C(=O)OC(C)(C)C)cc3)cc(=O)c2c1 [Compound 17c, 1,13-Bis[4′-((6-methyl)-4H-chromen-4-on-2-yl)phenyl]-N-(tert-butyloxycarbonyl)-1,4,10,13-tetraoxa-7-azamidecane], the IC50 [1] is reported as greater than 100 µM, the “RF (Relative Fold), cpd at 0.5 μM” value [5] is reported as “(9.6)” and the “RF (Relative Fold), cpd at 1 μM” value [5] is reported as “(139.2)”. The “RF (Relative Fold), cpd at 1 μM” value ([5]; listed as 17) was 139.0, the IC50 [6] was greater than 100 µM and the IC50 [9] was greater than 100 µM. For the same molecule, the IC50 [3] was greater than 100 µM, the IC50 [7] was 100 µM and the IC50 [4] was greater than 100 µM. It also gave an IC50 [11] greater than 100 µM and an IC50 [8] of 21 µM.
In the case of O=c1cc(-c2ccc(OCCOCCN(CCO)CCOCCOc3ccc(-c4cc(=O)c5ccccc5o4)cc3)cc2)oc2ccccc12 [Compound 14, 1,13-Bis[4′-(4H-chromen-4-on-2-yl)phenyl]-N-(2-hydroxyethyl)-1,4,10,13-tetraoxa-7-azamidecane], the IC50 [1] is reported as 14.8 ± 5.9 µM, the “RF (Relative Fold), cpd at 0.5 μM” value [5] is reported as “(5.0)” and the IC50 [6] is reported as 6.4 ± 1.5 µM. The IC50 [9] was 6.9 to 14.8 µM, the IC50 [3] was 6.9 ± 1.4 µM and the IC50 [7] was 7.2 ± 2.2 µM. It also gave an IC50 [4] of 10.7 ± 3.3 µM and an IC50 [8] of 3.2 ± 1.1 µM.
In the case of CC(C)(C)OC(=O)N(CCOCCOc1ccc(-c2oc3ccccc3c(=O)c2OCc2ccccc2)cc1)CCOCCOc1ccc(-c2oc3ccccc3c(=O)c2OCc2ccccc2)cc1 [Compound 16g, 1,13-Bis[4′-((3-benzyloxy)-4H-chromen-4-on-2-yl)phenyl]-7-(tert-butyloxycarbonyl)-1,4,10,13-tetraoxa-7-azamidecane], the “RF (Relative Fold), cpd at 1 μM” value [2] is reported as 1.2.
With CCN(CCOCCOc1ccc(-c2cc(=O)c3ccccc3o2)cc1)CCOCCOc1ccc(-c2cc(=O)c3ccccc3o2)cc1 [Compound 13, 1,13-Bis[4′-(4H-chromen-4-on-2-yl)phenyl]-N-(ethyl)-1,4,10,13-tetraoxa-7-azamidecane] the IC50 [1] was 17.3 ± 3.8 µM, the Therapeutic index ([5]; IC50 of compounds for L929/EC50 of compounds for lowering paclitaxel drug resistance) was 34.5 and the “RF (Relative Fold), cpd at 0.5 μM” value [5] was “(26.9)”. The IC50 [6] was 8.3 ± 1 µM, the EC50 [2] was 0.2 µM and the IC50 [9] was 6.9 to 17.3 µM. The IC50 [3] was 6.9 ± 2 µM, the IC50 [7] was 5.5 ± 1.1 µM and the IC50 [4] was 10.3 ± 2.2 µM. The IC50 [8] was 3.2 ± 0.8 µM.
